Measured values as given in PMC8804135 (Neurotherapeutics, 2021).

Tests used:
[1] = In vitro stability in brain plasma; type: in vitro ADME, rat; conditions: 1% Sprague dawley rat brain plasma, 200 mM phosphate pH 7.4, 37 °C, 10 µM; after 1 h; HPLC A280; n=3
Procedure: The method to study the stability of peptides in brain plasma is described in the Supplementary material. […]
receptor-2-selective agonist reduces acute food intake
Anneke Kuipers1, Márta Balasko2, Erika Pétervári2, Andreas Koller3,4, Susanne M.
Brunner3,4, Gert N. Moll1,5, Barbara Kofler 3*
In vitro stability in brain plasma
Sprague dawley rat brain lyophilized powder was purchased from MyBioSource (San Diego, USA). One gram brain powder was reconstituted in 10 ml PBS, 0.5 ml 2 M Tris (pH=8), 100 µl Triton X -100 and 10 mg SDS. The solution was centrifuged and the supernatant was collected, aliquoted and stored at -20 °C until usage. To assess the stability, 10 µM GAL-(1-15) and 10 µM M89b were incubated in 1% brain plasma buffered with 200 mM phosphate buffer (pH 7.4) at 37°C for up to 6 hours. At various time points […]
20 µl 100% ACN. Samples were centrifuged and kept on ice. Full-length peptides were quantified by using a C12 column (C12 RP 250 x 4.60 mm column, Phenomenex) on a JASCO HPLC system and applying a gradient of 20 -90% ACN in 0.1% TFA for 30 minutes.
Peptides were detected at 280 nm. A280 areas in chromatograms of the corresponding GAL-(1-15) and M89b full-length peptide peaks were used to determine the amount of peptide left after incubation with cerebrospinal fluid at the different time points. Peptide peaks were determined using JASCO-Borwin Chromatography software (v1.50).

[2] = In vitro stability in cerebrospinal fluid; type: in vitro ADME; conditions: cerebrospinal or other body fluid; pooled male Wistar Hannover rat cerebrospinal fluid, 37 °C; 4 µl 0.50 mM peptide + 10 µl CSF; after 4 h; HPLC A280; n = 2–3; read-out: Peptide retrieved in CSF
Procedure: Pooled male Wistar Hannover rat cerebrospinal fluid was purchased from BioIVT (West Sussex, UK). Stability of peptides was analyzed by incubation of 4 µl 0.50 mM GAL-(1–15) with 10 µl cerebrospinal fluid or 6 µl 0.33 mM M89b with 10 µl cerebrospinal fluid at 37 °C [43]. At various time points (0, 30, 60, 240, and 480 min), the reactions were quenched with 2 µl 50% TFA and 20 µl 100% ACN. Water was added to reach a final volume of 220 µl. Samples were centrifuged and kept on ice. Full-length peptides were quantified by using a C12 column (C12 RP 250 × 4.60 mm column, Phenomenex) on a JASCO HPLC system and applying a gradient of 20–90% ACN in 0.1% TFA for 30 min. Peptides were detected at 280 nm. A280 areas in chromatograms of the corresponding GAL-(1–15) and M89b full-length peptide peaks were used to determine the amount of peptide left after incubation with cerebrospinal fluid at the different time points. Peptide peaks were determined using JASCO-Borwin Chromatography software (v1.50).

[3] = In vitro stability in rat serum; type: in vitro ADME; conditions: 5% rat serum, 20 mM phosphate pH 7.4, 37 °C, 10 µM, HPLC A280, n = 2–3
Procedure: At various time points (0, 30, 90, 270, and 1410 min), 180 µl of samples were quenched with 10 µl 10% TFA and 20 µl 100% ACN. Samples were centrifuged and kept on ice. The amount of full-length peptides in the serum was analyzed using a C12 column (C12 RP 250 × 4.60 mm column, Phenomenex) on a JASCO HPLC system and applying a gradient of 10–90% ACN in 0.1% TFA for 45 min. Peptides were detected at 280 nm. A280 areas in chromatograms of the corresponding GAL-(1–15) and M89b full-length peptide peaks were used to determine the amount of peptide left after incubation with 5% rat serum at the different time points. Peptide peaks were determined using JASCO-Borwin Chromatography software (v1.50).

[4] = cited from earlier work
Source text: The use of natural galanin in clinical applications faces two serious limitations: lack of receptor specificity and in vivo susceptibility to rapid peptidase-mediated breakdown. […] Recently, a selective GAL2R agonist based on the sequence of spexin, a newly discovered natural peptide with affinity for GAL2R and ...

GAL2R = target: T1, GAL2R (Homo sapiens, UniProt O43603); design: expressed in transfected cells; host or cells: HEK293 Gqi cells, transient; plasmids from Young Seong (Korea University); conditions: cited from earlier work
T1 sequence (O43603 1-387): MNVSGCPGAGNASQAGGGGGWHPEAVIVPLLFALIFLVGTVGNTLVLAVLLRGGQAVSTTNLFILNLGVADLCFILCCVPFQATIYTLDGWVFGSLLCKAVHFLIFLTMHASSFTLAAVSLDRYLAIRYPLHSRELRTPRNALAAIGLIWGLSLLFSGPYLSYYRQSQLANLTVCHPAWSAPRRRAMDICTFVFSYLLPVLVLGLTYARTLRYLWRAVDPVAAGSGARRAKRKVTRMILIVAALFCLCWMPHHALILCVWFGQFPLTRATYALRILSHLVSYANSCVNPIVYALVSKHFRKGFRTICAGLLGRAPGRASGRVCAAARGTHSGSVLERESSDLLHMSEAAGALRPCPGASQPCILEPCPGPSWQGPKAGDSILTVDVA
Source text: Since the discovery of the three GALRs, major effort has been directed at developing receptor-selective agonists and antagonists. These were based on substitution of certain amino acids in the galanin peptide sequence. While receptor selectivity was achieved to some degree, GAL(2–11) turned out to be a very selective non-GAL1R agonist.

[5] = system: non-fasted male Wistar rats; experiment: Food intake and body weight after intranasal application of peptides; type: in vivo, rat
Procedure: For intranasal delivery, 1 mg of M89b was first dissolved in 566 µl 2,2,2-trifluorethanol, 566 µl 10% (2-hydroxypropyl)-ß-cyclodextrin (HBC), and 1 µl acetic acid and incubated at 60 °C for 20 min. Another 566 µl of 10% HBC were added. The peptide was then dried in a speed-vac, and the dried pellet was dissolved in 1132 µl water by vortexing and incubation at 60 °C. M871 and GALP were purchased from GL Biochem. M871 was dissolved in saline containing 10% HBC. GALP was dissolved in saline containing 5% α-cyclodextrin.
In vivo experiments involving intranasal treatment of rats and measurement of feeding behavior were performed at the Institute for Translational Medicine, University of Pécs, Pécs, Hungary. Experiments were approved by the National Ethical Council for Animal Research (permit number, BA 02/2000–11/2018). They were also in accord with the directives of the European Communities Council on the protection of animals used for scientific purposes (86/609/EEC, Directive 2010/63/EU of the European Parliament and of the Council).
Spontaneous food intake was measured in non-fasted male Wistar rats (3 months old) for 24 h following intranasal application of peptide solutions by an automated FeedScale System (Columbus, OH). Each group of animals (6–9 rats/group) was habituated to the individual chambers of the FeedScale System until daily food intake and changes in the body weight of the animals had normalized. This habituation, which lasted for a minimum of 2 weeks, allowed adaptation to the environment, to the powdered chow and to the feeder. This powdered form of chow prevented food hoarding. A special digital scale under the cages provided precise automated measurement and continuous recording of the amount of consumed food. During the measurement of the cumulative 24 h food intake, data were collected every 30 min.
Intranasal applications were performed at 06:00 PM at the onset of the active nighttime period of rats. First, the body weight of animals was recorded, and then they were intraperitoneally anesthetized with ketamine (52 mg/kg) and xylazine (9 mg/kg). For the intranasal application of peptides, rats were placed on their backs, and 25–30 µl of peptide solution was injected gently per nostril (total volume of 50–60 μl per rat depending on the administered peptides) using a 10-μl pipette. The following solutions were applied: M89b (25 nmol in 60 µl saline containing 10% HBC); GALP (17.5 nmol in 50 µl saline containing 5% α-cyclodextrin); M871 (219 nmol in 60 µl 10% HBC); and M89b + M871 (25 nmol M89b + 219 nmol M871 in 60 µl 10% HBC). […] At 24 h post-treatment, the body weight of the animals was measured.
Statistical analysis was performed with SPSS 11.0. […] Body weight data were analyzed by applying a one-way ANOVA with Tukey’s post hoc test. […]

[6] = intranasal administration with α-cyclodextrins; cited from earlier work
Source text: For delivery of therapeutic peptides and proteins to the brain, the blood–brain barrier (BBB) is a major impediment. Intranasal delivery might provide a non-invasive means to bypass the BBB. Advantages of applying peptides via the nasal route, provided they do indeed reach the brain, include minimizing exposure to peripheral organs and tissues, thus reducing systemic side effects. […] Intranasal delivery of peptides may provide the ability to target specific re ...

Compound: CC(C)C[C@H](NC(=O)[C@H](CC(C)C)NC(=O)[C@H](Cc1ccc(O)cc1)NC(=O)CNC(=O)[C@H](C)NC(=O)[C@H](CO)NC(=O)[C@H](CC(N)=O)NC(=O)[C@H](CC(C)C)NC(=O)[C@@H](NC(=O)[C@H](Cc1c[nH]c2ccccc12)NC(=O)CN)[C@@H](C)O)C(=O)NCC(=O)N1CCC[C@H]1C(=O)N[C@@H](Cc1c[nH]cn1)C(=O)N[C@@H](C)C(N)=O [GAL-(1–15), reference compound]
- Degradation in brain plasma [1]: the whole amount of GAL-(1–15) was degraded
- remaining at 4 h, 143 µM [2]: < 4%
- metabolised at 0.5 h, 10 µM ([3]; after 30 min, read-out: Peptide degraded in rat serum): 80%
- remaining at 1.5 h, 10 µM ([3]; after 90 min, read-out: Peptide detectable in rat serum): < 2%

Compound: CC(C)C[C@H](NC(=O)CNC(=O)[C@H](CC(N)=O)NC(=O)[C@H](CCCCN)NC(=O)[C@H](CC(=O)O)NC(=O)[C@H](CO)NC(=O)[C@H](Cc1ccccc1)NC(=O)[C@H](CO)NC(=O)[C@H](CCCNC(=N)N)NC(=O)[C@H](Cc1cnc[nH]1)NC(=O)[C@H](CC(N)=O)NC(=O)CNC(=O)[C@@H](NC(=O)[C@H](C)NC(=O)[C@H](Cc1cnc[nH]1)NC(=O)[C@@H]1CCCN1C(=O)CNC(=O)[C@H](CC(C)C)NC(=O)[C@H](CC(C)C)NC(=O)[C@H](Cc1ccc(O)cc1)NC(=O)CNC(=O)[C@H](C)NC(=O)[C@H](CO)NC(=O)[C@H](CC(N)=O)NC(=O)[C@H](CC(C)C)NC(=O)[C@@H](NC(=O)[C@H](Cc1c[nH]c2ccccc12)NC(=O)CN)[C@@H](C)O)C(C)C)C(=O)N[C@H](C(=O)N[C@@H](CO)C(=O)O)[C@@H](C)O [galanin]
- In vivo half-life in plasma [4]: around 4 min

Compound: Ala5-galanin(2–11)
- Preference for GAL2R compared to both GAL1R and GAL3R (GAL2R): more than 375 fold

Compound: galanin-like peptide (APAHRGRGGWTLNSAGYLLGPVLHLPQMGDQDGKRETALEILDLWKAIDGLPYSHPPQPS; Galanin-like peptide; UniProt Q9UBC7 25-84, looked up) [GALP, reference compound]
- Reduction of 24-h food intake ([5]; intranasal 17.5 nmol in 50 µl saline with 5% α-cyclodextrin, vs vehicle, p = 0.038): 19%
- 24-h body weight change ([5]; intranasal 17.5 nmol in saline with 5% α-cyclodextrin, p = 0.0247 as printed): trend of reduction, but this change did not reach statistical significance
- Increase of uptake in all brain regions compared to GALP alone [6]: two- to threefold
